# Legend:
# ABCG2 [1] = molecular target: T1, ABCG2 (Homo sapiens, UniProt Q9UNQ0)
# T1 sequence (Q9UNQ0 1-655): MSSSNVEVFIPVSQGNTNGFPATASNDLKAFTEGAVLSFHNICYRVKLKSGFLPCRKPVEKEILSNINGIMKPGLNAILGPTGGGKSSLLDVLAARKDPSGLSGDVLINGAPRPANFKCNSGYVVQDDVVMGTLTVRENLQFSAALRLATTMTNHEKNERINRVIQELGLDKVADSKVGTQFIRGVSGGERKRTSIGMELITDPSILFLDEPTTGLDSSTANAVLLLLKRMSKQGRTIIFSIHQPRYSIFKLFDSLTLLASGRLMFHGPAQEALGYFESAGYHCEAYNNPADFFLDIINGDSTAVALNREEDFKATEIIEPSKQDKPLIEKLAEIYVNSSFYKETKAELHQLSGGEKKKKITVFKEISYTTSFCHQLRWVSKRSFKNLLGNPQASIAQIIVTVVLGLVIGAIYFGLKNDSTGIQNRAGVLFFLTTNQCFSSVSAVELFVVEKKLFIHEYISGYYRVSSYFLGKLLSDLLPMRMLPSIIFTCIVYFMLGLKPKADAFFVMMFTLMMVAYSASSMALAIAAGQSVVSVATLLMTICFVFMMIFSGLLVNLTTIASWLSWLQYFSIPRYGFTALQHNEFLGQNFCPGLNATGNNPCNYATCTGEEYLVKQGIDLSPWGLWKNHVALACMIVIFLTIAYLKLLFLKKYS
# ABCG2 [2] = molecular target: T1, ABCG2; assay: biochemical; set-up: cell membranes that overexpressed ABCG2
# ABCB1 [3] = molecular target: T2, ABCB1 (Homo sapiens, UniProt P08183); assay: ATPase stimulation in ABCB1-overexpressing membranes; also [3H]-paclitaxel accumulation/efflux inhibition in KB-C2 cells; format: biochemical; set-up: cell membranes that overexpressed ABCB1
# T2 sequence (P08183 whole entry): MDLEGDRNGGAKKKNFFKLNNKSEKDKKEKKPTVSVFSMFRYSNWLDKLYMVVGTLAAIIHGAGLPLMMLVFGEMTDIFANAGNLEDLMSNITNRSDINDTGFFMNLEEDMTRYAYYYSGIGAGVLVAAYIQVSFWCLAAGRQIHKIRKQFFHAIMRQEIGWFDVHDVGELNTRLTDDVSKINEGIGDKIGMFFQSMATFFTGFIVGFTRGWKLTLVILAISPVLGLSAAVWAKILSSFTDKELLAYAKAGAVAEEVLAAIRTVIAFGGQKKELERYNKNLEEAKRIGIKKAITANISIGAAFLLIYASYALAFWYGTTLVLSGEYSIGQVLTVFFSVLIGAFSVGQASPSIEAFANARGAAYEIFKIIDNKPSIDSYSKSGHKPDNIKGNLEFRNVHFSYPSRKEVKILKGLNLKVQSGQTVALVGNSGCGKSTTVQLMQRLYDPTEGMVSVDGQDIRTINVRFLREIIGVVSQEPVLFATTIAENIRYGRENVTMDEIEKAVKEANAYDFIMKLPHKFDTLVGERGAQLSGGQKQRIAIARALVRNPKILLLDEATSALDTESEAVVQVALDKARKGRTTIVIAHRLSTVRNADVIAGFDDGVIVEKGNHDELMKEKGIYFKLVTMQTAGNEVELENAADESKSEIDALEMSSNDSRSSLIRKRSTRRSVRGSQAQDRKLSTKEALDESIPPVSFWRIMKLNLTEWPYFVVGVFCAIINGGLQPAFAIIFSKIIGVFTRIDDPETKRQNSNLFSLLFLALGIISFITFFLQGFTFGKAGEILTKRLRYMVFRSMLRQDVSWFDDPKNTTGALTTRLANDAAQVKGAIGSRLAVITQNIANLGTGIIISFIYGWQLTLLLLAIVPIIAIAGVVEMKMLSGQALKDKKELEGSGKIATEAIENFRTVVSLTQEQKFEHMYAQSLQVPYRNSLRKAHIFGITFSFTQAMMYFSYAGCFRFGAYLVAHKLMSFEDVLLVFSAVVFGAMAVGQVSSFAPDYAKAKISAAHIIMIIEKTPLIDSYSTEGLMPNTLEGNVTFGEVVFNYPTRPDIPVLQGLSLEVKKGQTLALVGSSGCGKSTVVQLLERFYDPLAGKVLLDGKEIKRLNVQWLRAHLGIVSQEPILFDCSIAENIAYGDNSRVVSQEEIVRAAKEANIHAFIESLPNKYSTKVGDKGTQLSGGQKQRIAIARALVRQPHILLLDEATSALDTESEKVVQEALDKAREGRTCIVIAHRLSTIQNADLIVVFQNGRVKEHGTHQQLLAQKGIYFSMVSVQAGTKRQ
# ABCB1 [4] = molecular target: T2, ABCB1
structure (smiles),measurement,setting,value
O=C1c2c(O)ccc(O)c2C(=O)c2c(NCCNCCO)ccc(NCCNCCO)c21 [Mitoxantrone],radiolabelled efflux/accumulation in ABCG2-overexpressing NCI-H460/MX20 vs paren,ABCG2 [1],[^3H]-mitoxantrone efflux in ABCG2-overexpressing NCI-H460/MX20 cells
CNC(=O)c1ccccc1Nc1cc(Nc2ccc(N3CCOCC3)cc2OC)ncc1C(F)(F)F [VS-4718],EC50,ABCG2 [2],9.6 µM
same,EC50,ABCB1 [3],1.72 µM
CC(=O)O[C@H]1C(=O)[C@@]2(C)[C@H]([C@H](OC(=O)c3ccccc3)[C@]3(O)C[C@H](OC(=O)[C@H](O)[C@@H](NC(=O)c4ccccc4)c4ccccc4)C(C)=C1C3(C)C)[C@]1(OC(C)=O)CO[C@@H]1C[C@@H]2O [Paclitaxel],radiolabelled efflux/accumulation in ABCB1-overexpressing KB-C2 vs parental KB-3,ABCB1 [4],VS-4718 significantly reduced the efflux of [^3H]-paclitaxel in ABCB1-overexpressing KB-C2 cells
